Assay [1] addresses telomerase (Homo sapiens, UniProt O14746). Description: Telomeric Repeat Amplification Protocol (TRAP) assay, cell-free. As to conditions: 0.5 μg total cell extract from H1299 human lung cancer cells, FIG. 1.
Assay [2] has as its system HL-60 (TB). Description: In vitro anticancer assay (NCI 60 cell line panel), HL-60 (TB). It counts as cell-based. As to conditions: Homo sapiens, leukemia. The protocol: (§1) Selected compounds were evaluated in vitro against the NCI's full panel of 60 cancer cell lines derived from nine cancer cell types, including: leukemia (CCRF-CEM, HL-60 (TB), K-562, MOLT-4, RPMI-8226, and SR); non-small cell lung cancer (A549/ATCC, EKVX, HOP-62, HOP-92, NCI-H226, NCI-H23, NCI-H322M, and NCI-H522); colon cancer (COLO 205, HCC-2998, HCT-116, HCT-15, HT29, KM12, and SW-620); CNS cancer (SF-268, SF-295, SF-539, SNB-19, SNB-75, and U251); melanoma (LOX IMVI, MALME-3M, M14, SK-MEL-2, SK-MEL-28, SK-MEL-5, UACC-62, and UACC-257); ovarian cancer (IGROV1, OVCAR-3, OVCAR-4, OVCAR-5, OVCAR-8, and SK-OV-3); renal cancer (786-0, A498, ACHN, CAKI-1, RXF 393, SN12C, TK-10, and UO-31); prostate cancer (PC-3 and DU-145); and breast cancer (MCF7, MCF7/ADR-RES, MDA-MB-231/ATCC, HS 578T, MDA-MB-435, MDA-N, and T-47D). For each compound, dose-response curves for each cell line were measured with five different drug concentrations, and the concentration causing 50% cell growth inhibition (GI50) compared with the control was calculated. The mean GI50 values of each tested compound for all the 60 tumor cell lines were also calculated.

Assay [3] relates to K-562. Briefly: In vitro anticancer assay (NCI panel), K-562. It counts as cell-based. As to conditions: Homo sapiens, K562; K-562, leukemia. The protocol:
as §1

Assay [4] has as its system SR. Description: In vitro anticancer assay (NCI panel), SR. Type of assay: cell-based. The note with it: Homo sapiens, leukemia. As for the experimental part: as §1
The subject of assay [5] is A549/ATCC. Description: In vitro anticancer assay (NCI panel), A549/ATCC. It counts as cell-based. As to conditions: Homo sapiens, non-small cell lung cancer. The protocol:
as §1

Assay [6] has as its system HOP-62. Briefly: In vitro anticancer assay (NCI panel), HOP-62. It counts as cell-based. The note with it: Homo sapiens; HOP-62, non-small cell lung cancer. As for the experimental part: as §1
The test system of assay [7] is NCI-H460. Briefly: In vitro anticancer assay (NCI panel), NCI-H460. Type of assay: cell-based. As to conditions: Homo sapiens; NCI-H460, non-small cell lung cancer. As for the experimental part: as §1
In assay [8] the test system is COLO 205. Description: In vitro anticancer assay (NCI panel), COLO 205. The note with it: Homo sapiens; COLO 205, colon cancer. It counts as cell-based. The protocol: as §1
Assay [9] concerns HCT-116. Description: In vitro anticancer assay (NCI panel), HCT-116. It counts as cell-based. The note with it: Homo sapiens; HCT-116, colon cancer. The protocol:
as §1

The test system of assay [10] is HT29. Description: In vitro anticancer assay (NCI panel), HT29. It counts as cell-based. As to conditions: Homo sapiens, HT-29; HT29, colon cancer. The protocol: as §1
Assay [11] relates to SF-268. Description: In vitro anticancer assay (NCI panel), SF-268. It counts as cell-based. The note with it: Homo sapiens; SF-268, CNS cancer. As for the experimental part: as §1
Assay [12] relates to SF-295. Briefly: In vitro anticancer assay (NCI panel), SF-295. It counts as cell-based. As to conditions: Homo sapiens; SF-295, CNS cancer. As for the experimental part: as §1
Assay [13] deals with SNB-19. Briefly: In vitro anticancer assay (NCI panel), SNB-19. As to conditions: Homo sapiens; SNB-19, CNS cancer. It counts as cell-based. As for the experimental part:
as §1

Assay [14] deals with LOX IMVI. Description: In vitro anticancer assay (NCI panel), LOX IMVI. Type of assay: cell-based. As to conditions: Homo sapiens, melanoma. The protocol: as §1
In assay [15] the test system is SK-MEL-2. Description: In vitro anticancer assay (NCI panel), SK-MEL-2. It counts as cell-based. The note with it: Homo sapiens; SK-MEL-2, melanoma. As for the experimental part:
as §1

Assay [16] deals with UACC-62. Briefly: In vitro anticancer assay (NCI panel), UACC-62. As to conditions: Homo sapiens; UACC-62, melanoma. Type of assay: cell-based. The protocol:
as §1

In assay [17] the test system is OVCAR-3. Description: In vitro anticancer assay (NCI panel), OVCAR-3. Type of assay: cell-based. As to conditions: Homo sapiens; OVCAR-3, ovarian cancer. As for the experimental part: as §1
Assay [18] deals with OVCAR-5. Description: In vitro anticancer assay (NCI panel), OVCAR-5. The note with it: Homo sapiens; OVCAR-5, ovarian cancer. Type of assay: cell-based. The protocol:
as §1

Assay [19] concerns OVCAR-8. Briefly: In vitro anticancer assay (NCI panel), OVCAR-8. Type of assay: cell-based. The note with it: Homo sapiens; OVCAR-8, ovarian cancer. The protocol:
as §1

Assay [20] concerns 786-0. Description: In vitro anticancer assay (NCI panel), 786-0. Type of assay: cell-based. The note with it: Homo sapiens; 786-0, renal cancer. The protocol:
as §1

Assay [21] deals with ACHN. Briefly: In vitro anticancer assay (NCI panel), ACHN. Type of assay: cell-based. As to conditions: Homo sapiens, renal cancer. The protocol:
as §1

The subject of assay [22] is SN12C. Briefly: In vitro anticancer assay (NCI panel), SN12C. It counts as cell-based. As to conditions: Homo sapiens, renal cancer. The protocol:
as §1

For assay [23], the system named is PC-3. Briefly: In vitro anticancer assay (NCI panel), PC-3. Type of assay: cell-based. As to conditions: Homo sapiens; PC-3, prostate cancer. As for the experimental part:
as §1

Assay [24] concerns DU-145. Briefly: In vitro anticancer assay (NCI panel), DU-145. It counts as cell-based. As to conditions: Homo sapiens; DU-145, prostate cancer. The protocol: as §1
Assay [25] deals with MCF7. Description: In vitro anticancer assay (NCI panel), MCF7. It counts as cell-based. As to conditions: Homo sapiens; MCF7, breast cancer. The protocol:
as §1

Assay [26] deals with MDA-MB-231/ATCC. Description: In vitro anticancer assay (NCI panel), MDA-MB-231/ATCC. Type of assay: cell-based. The note with it: Homo sapiens, breast cancer. The protocol: as §1
The test system of assay [27] is MDA-MB-435. Description: In vitro anticancer assay (NCI panel), MDA-MB-435. It counts as cell-based. As to conditions: Homo sapiens; MDA-MB-435, breast cancer. The protocol: as §1
Assay [28] deals with NCI's full panel of 60 cancer cell lines. Briefly: In vitro anticancer assay, all cell lines of the NCI panel. Type of assay: cell-based, human. The note with it: mean values of over all cell lines tested, read-out: MG MID (mean GI50). The protocol: as §1

Structures can show the parent of a compound that is named as a salt. Where two headings read alike, the source gives them in different places.

Sequence of telomerase (O14746 whole entry): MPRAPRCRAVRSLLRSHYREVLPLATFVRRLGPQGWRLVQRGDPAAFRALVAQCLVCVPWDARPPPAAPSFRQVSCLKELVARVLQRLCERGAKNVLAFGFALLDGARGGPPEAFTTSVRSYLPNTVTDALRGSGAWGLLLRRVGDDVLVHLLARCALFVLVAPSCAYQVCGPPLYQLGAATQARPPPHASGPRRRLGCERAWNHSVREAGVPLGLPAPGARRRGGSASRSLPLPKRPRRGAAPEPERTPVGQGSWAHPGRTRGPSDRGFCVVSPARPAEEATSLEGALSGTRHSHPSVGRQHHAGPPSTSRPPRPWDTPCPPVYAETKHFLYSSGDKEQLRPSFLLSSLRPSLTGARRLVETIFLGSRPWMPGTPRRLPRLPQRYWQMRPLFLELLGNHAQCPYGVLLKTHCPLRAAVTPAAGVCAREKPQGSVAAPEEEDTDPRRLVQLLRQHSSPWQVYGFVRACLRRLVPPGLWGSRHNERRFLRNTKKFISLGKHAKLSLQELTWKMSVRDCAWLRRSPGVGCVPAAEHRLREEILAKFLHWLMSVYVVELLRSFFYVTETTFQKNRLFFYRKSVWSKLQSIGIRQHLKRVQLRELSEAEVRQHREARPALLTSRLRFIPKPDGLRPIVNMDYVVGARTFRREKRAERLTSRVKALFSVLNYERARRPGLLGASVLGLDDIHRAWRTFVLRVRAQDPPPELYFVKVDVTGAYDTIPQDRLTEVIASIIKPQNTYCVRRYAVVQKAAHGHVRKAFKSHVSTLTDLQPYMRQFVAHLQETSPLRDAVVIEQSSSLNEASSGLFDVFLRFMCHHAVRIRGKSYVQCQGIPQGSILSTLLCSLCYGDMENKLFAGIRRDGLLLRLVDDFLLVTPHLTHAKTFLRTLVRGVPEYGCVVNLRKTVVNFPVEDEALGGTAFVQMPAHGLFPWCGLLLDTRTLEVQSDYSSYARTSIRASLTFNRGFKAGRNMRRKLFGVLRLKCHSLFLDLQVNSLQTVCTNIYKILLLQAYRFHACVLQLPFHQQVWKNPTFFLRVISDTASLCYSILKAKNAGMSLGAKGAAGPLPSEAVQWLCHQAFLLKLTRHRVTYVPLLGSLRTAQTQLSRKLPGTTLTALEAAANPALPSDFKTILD

Regarding “6-[2-(3,4-dihydroxyphenyl)ethylamino]-11 indolo[3,2-c]quinoline hydrochloride [Compound 7b]”, the “concentration that completely inhibited telomerase activity” value in assay [1] was “approximately 2 nM”.

`Oc1ccc(CCNc2nc3ccccc3c3[nH]c4ccccc4c23)cc1` [Compound 7a, 6-[2-(4-Hydroxyphenyl)ethylamino]-11H-indolo[3,2-c]quinoline hydrochloride]: the 50% growth inhibitory concentration (GI50) (in general, the concentration that inhibits growth by half) in [2] amounted to 2400 nM; in assay [3] it was 1910 nM; in assay [4] it was 1480 nM; in assay [5], 1330 nM; in assay [6], 1630 nM; in assay [7] it was 1310 nM. The GI50 was 1180 nM in [8]; 1220 nM in assay [9]; 1420 nM in [10]; 1710 nM in [11]; 1380 nM in assay [12]; 1830 nM in assay [13]. The GI50 is 1590 nM in [14]; 1730 nM in assay [15]; 1660 nM in assay [16]; 1600 nM in assay [17]; 2890 nM in assay [18]; 1020 nM in assay [19]. The GI50 in assay [20] was 1290 nM; in [21], 1270 nM; in assay [22], 1270 nM; in [23] it was 1630 nM; in assay [24] it was 1450 nM; in assay [25], 1370 nM. Also, the GI50 is 1360 nM in assay [26], 1600 nM in [27] and 1700 nM in [28] (Homo sapiens). Further, in assay [1], the “concentration that completely inhibited telomerase activity” value was “approximately 2 nM”.

As to `COc1ccc(CCNc2nc3ccccc3c3[nH]c4ccccc4c23)cc1OC` [Compound 7c, 6-[2-(3,4-dimethoxyphenyl)ethylamino]-11H-indolo[3,2-c]quinoline hydrochloride], the “concentration that completely inhibited telomerase activity” value in assay [1] is “approximately 2 nM”.

For the molecule `NCCCN1CCN(CCCNc2nc3ccccc3c3[nH]c4ccccc4c23)CC1` [Compound 6, {3-[4-(3-Aminopropyl)piperazin-1-yl]propyl}(11H-indolo[3,2-c]quinolin-6-yl)amine hydrochloride], the 50% growth inhibitory concentration (GI50) in assay [2] is 420 nM; in assay [3], 70 nM; in assay [4], 350 nM; in [5], 200 nM; in assay [6], 240 nM; in [7], 300 nM. In addition, the GI50 in assay [8] was 210 nM; in [9], 180 nM; in [10], 140 nM; in assay [11] it was 310 nM; in assay [12], 140 nM; in assay [13], 270 nM. For the same molecule, the GI50 was 290 nM in [14]; 180 nM in assay [15]; 210 nM in assay [16]; 240 nM in [17]; 250 nM in [18]; 40 nM in assay [19]. Besides, the GI50 in assay [20] was 260 nM; in assay [21], 200 nM; in [22], under 10 nM; in assay [23], 350 nM; in assay [24], 120 nM; in assay [25], 120 nM. The GI50 was 230 nM in assay [26], 370 nM in assay [27] and about 300 nM in assay [28] (Homo sapiens). The “concentration that completely inhibited telomerase activity” value in assay [1] is listed as “approximately 0.02 nM”.

As to `c1ccc2c(c1)nc(NCCN1CCNCC1)c1c3ccccc3[nH]c21` [Compound 5, N-(11H-Indolo[3,2-c]quinolin-6-yl)-2-(piperazin-1-yl)ethanamine], the GI50 in assay [2] was determined as 290 nM; in assay [3] it was 70 nM; in [4], 180 nM; in [5], 110 nM; in [6], 400 nM; in assay [7], 190 nM. Also, the 50% growth inhibitory concentration (GI50) in assay [8] was determined as 220 nM; in assay [9], 70 nM; in assay [10], 120 nM; in assay [11], 500 nM; in assay [12], 310 nM; in assay [13] it was 300 nM. The GI50 in [14] amounted to 200 nM; in [15], 1060 nM; in assay [16], 1260 nM; in assay [17] it was 270 nM; in assay [18] it was 540 nM; in assay [19], 40 nM. Moreover, the concentration for 50% growth inhibition (GI50) came to 220 nM in assay [20]; 380 nM in assay [21]; 80 nM in assay [22]; 310 nM in [23]; 160 nM in [24]; 80 nM in assay [25]. Besides, the 50% growth inhibitory concentration (GI50) in [26] is 340 nM; in [27], 630 nM; in assay [28] (Homo sapiens) it was about 300 nM; in assay [28], 350 nM. The “concentration that completely inhibited telomerase activity” value in assay [1] was “approximately 0.02 nM”.

In the case of `CN(CCCN)CCCNc1nc2ccccc2c2[nH]c3ccccc3c12` [Compound 10, N^1-[3-(11H-Indolo[3,2-c]quinolin-6-ylamino)propyl]-N^1-methylpropane-1,3-diamine hydrochloride], the GI50 in assay [2] was found to be 90 nM; in assay [3], 40 nM; in assay [4] it was 370 nM; in assay [5], 80 nM; in assay [6], 150 nM; in assay [7], 310 nM. Also, the GI50 was 180 nM in assay [8]; 80 nM in assay [9]; 150 nM in [10]; 250 nM in assay [11]; 130 nM in [12]; 150 nM in [13]. For the same molecule, the concentration for 50% growth inhibition (GI50) in assay [14] was found to be 210 nM; in assay [15] it was 200 nM; in assay [16] it was 190 nM; in assay [17], 220 nM; in assay [18] it was 150 nM; in assay [19], 40 nM. Moreover, the concentration for 50% growth inhibition (GI50) in assay [20] turned out to be 90 nM; in assay [21], 380 nM; in assay [22] it was 70 nM; in assay [23], 320 nM; in assay [24], 240 nM; in assay [25], 50 nM. The 50% growth inhibitory concentration (GI50) in assay [26] is 170 nM; in [27], 190 nM; in assay [28] (Homo sapiens) it was 180 nM.
